Laboratory results: patent US20020042423A1, “METHODS FOR IDENTIFYING COMPOUNDS THAT BIND TO HLA MOLECULES AND USE OF SUCH COMPOUNDS AS HLA-AGONISTS OR ANTAGONISTS” (priority 1998, published 2002)
“Also recorded” adds a separate entry of the source.

Legend:
HLA-DR1301 [1] = target: T1, HLA-DR1301 (Homo sapiens, UniProt P01903+P01911, A100E/A169T/K41T/L162R/M171V/P40S/Q125H/Q178H/Q39Y/Q99D/R42S/S66N/T262R/W38E/Y61H); assay: Competitive peptide-binding assay with biotinylated MBP peptide; conditions: analog at 6.25 μM to 400 μM, OD at 450 nm
T1 construct: expressed in transfected cells; host or cells: DAP.3 murine fibroblasts (gift of C. Hurley and R. Rosen-Bronson)
Description: 1.5×10^6 HLA-DR-transfected Dap.3 cells were washed in Hanks' Balanced Salt Solution, fixed with 1% paraformaldehyde, washed with RPMI medium and PBS, and resuspended in binding buffer. Biotinylated MBP peptide was added at 200 μg/ml (for MBP 152-165) or 1 μg/ml (for MBP 83-97). BSA was added at 1%. The blocking compound (analogue 6) was added at multiple concentrations ranging from 6.25 μM to 400 μM and incubated overnight in a shaking water bath at 37° C. The samples were then washed and lysed with 100 μl lysis buffer containing 1% nonidet-P40 on ice for 40 min. After centrifugation, the supernatant containing the cell membrane fragments was […] to a 96-well plate pre-coated with the L243 monoclonal antibody that binds to all HLA-DR molecules. The lysis buffer was neutralized with 100 μl n-octyl-β-D-glucopyranoside overnight at 4° C. The samples were then washed and incubated with streptavidin-peroxidase for 1 hour at room temperature. […] OD was measured by an ELISA reader at 450 nm. Competition of the compound for the MBP peptide was calculated according to the following formula: [formula]
This assay evaluates the binding of biotinylated MBP peptide to HLA-DR1301 in the presence of different concentrations of the analog (analog 6 of lead compound). The amounts of MBP peptide bound (label) to the HLA molecule are then quantitated based on the amount of biotin detected.

HLA-DR1301 [2] = target: T1, HLA-DR1301; assay: IL-2 secretion functional blocking assay, DR1301-restricted TCR transfectants with MBP 152-165; type: cell-based; conditions: for specificity for DR-1301 as compared with DR-1501, by inhibitory effect on IL-2 secretion: DR1301- versus DR1501-restricted TCR transfectants; for inhibition of IL-2 secretion / blocking of antigen presentation by DR-1301: DR1301 and TCR transfectants, MBP peptide, IL-2 in supernatant by ELISA
Source text: The murine T-cell hybridoma cell line BW58α-β- (a gift of […] and W. Born) was used for transfection of human TCRα and β cDNA isolated from patients with multiple sclerosis (Hastings, 1996). The parental DAP.3 murine fibroblast cell line was used for transfection of DR(α,β1*1301) or DR((α,β*1501) as previously described (a gift of C. Hurley and R. Rosen-Bronson)) ([Hurley, 1995), [Posch, 1995), [Rosen-Bronson, 1991). All cells lines were maintained in DMEM supplemented with 10% fetal calf serum, 50 U/ml penicillin G, 50 μg/ml streptomycin, 1 mM sodium pyruvate, 2 mM glutamine, and 10 mM HEPES buffer (all Gibco/BRL, Gaithersburg, Md.). TCR- and HLA-transfectants were expanded using 1 mg/ml G418 (Gibco/BRL), or 1 mg/ml G418 and 1 mg/ml hygromycin (Calbiochem, San Diego, Calif.), respectively. Cells were washed and resuspended in DMEM complete medium without antibodies. 10^5 cells of the TCR-transfected or untransfected (control) BW58α-β- cells and an equal number of DR-transfected or untransfected (control) Dap.3 cells were incubated with MBP 152-165, or MBP 83-97 and various concentrations of compound, using an U-bottom 96 well plate (Costar). Cell culture supernatants were harvested after […] and stored at -70° C. until use. IL-2 cytokine concentrations (pg/ml) of supernatants were measured by ELISA (Genzyme, Cambridge, Mass.) according to the manufacturer's instructions. The activity of compounds identified by MCDOCK in functional assays that measure inhibition of IL-2 secretion by DR1301 and DR1501-restricted TCR transfectants using compound #105 and several other compounds was evaluated. The results obtained with compound #105 are contained in FIG. 3. In the figure t1 and t2 represent dose-response curves generated in two different experiments. TCR and DR transfectants were incubated for 36 hours with or without compound and the appropriate MBP peptide. IL-2 concentration of the supernatants was then analyzed by ELISA.

HLA-DR1501 = target: T2, HLA-DR1501 (Homo sapiens, UniProt P01903+P01911); assay: IL-2 secretion functional blocking assay, DR1501-restricted TCR transfectants with MBP 83-97; type: cell-based; conditions: DR1501 and TCR transfectants, MBP peptide, IL-2 in supernatant by ELISA
T2 construct: expressed in transfected cells; host or cells: DAP.3 murine fibroblasts (gift of C. Hurley and R. Rosen-Bronson)
Source text: The murine T-cell hybridoma cell line BW58α-β- (a gift of B. Malissen and W. Born) was used for transfection of human TCRα and β cDNA isolated from patients with multiple sclerosis (Hastings, 1996). The parental DAP.3 murine fibroblast cell line was used for transfection of DR(α,β1*1301) or DR((α,β*1501) as previously described (a gift of C. Hurley and R. Rosen-Bronson)) ([Hurley, 1995), [Posch, 1995), [Rosen-Bronson, 1991). All cells lines were maintained in DMEM supplemented with 10% fetal calf serum, 50 U/ml penicillin G, 50 μg/ml streptomycin, 1 mM sodium pyruvate, 2 mM glutamine, and 10 mM HEPES buffer (all Gibco/BRL, Gaithersburg, Md.). TCR- and HLA-transfectants were expanded using 1 mg/ml G418 (Gibco/BRL), or 1 mg/ml G418 and 1 mg/ml hygromycin (Calbiochem, San Diego, Calif.), respectively.
Cells were washed and resuspended in DMEM complete medium without antibodies. […] IL-2 cytokine concentrations (pg/ml) of supernatants were measured by ELISA (Genzyme, Cambridge, Mass.) according to the manufacturer's instructions.
The activity of compounds identified by MCDOCK in functional assays that measure inhibition of IL-2 secretion by DR1301 and DR1501-restricted TCR transfectants using compound #105 and several other compounds was evaluated. […] IL-2 concentration of the supernatants was then analyzed by ELISA.

| specificity for DR-1301 as compared with DR-1501, by inhibitory effect on IL-2 secretion (HLA-DR1301 [2]; listed as #6) | inhibition of IL-2 secretion / blocking of antigen presentation by DR-1301 (HLA-DR1301 [2]; listed as lead compound #105) | reversal of inhibition of IL-2 production by increasing MBP 152-165 peptide concentration (HLA-DR1301 [2]; MBP 0 to 1200 micrograms/ml, DR1301-restricted TCR transfectants) | inhibition of IL-2 secretion / blocking of antigen presentation by DR-1501 (HLA-DR1501) | Compound | competition with biotinylated MBP peptide for binding to DR1301 (HLA-DR1301 [1]) | specificity for DR-1301 as compared with DR-1501, by inhibitory effect on IL-2 secretion (HLA-DR1301 [2]) | inhibition of IL-2 secretion / blocking of antigen presentation by DR-1301 (HLA-DR1301 [2]) |
| --- | --- | --- | --- | --- | --- | --- | --- |
| greater specificity for DR1301 than #105 | – | – | – | O=C(CNc1ccc(Cl)cc1Cl)NC1C=Cc2ccc(S(=O)(=O)Nc3ccc(Cl)cc3Cl)cc2C1=O (stereo not drawn) [analog #6, 2-[(2,4-dichlorophenyl)amino]-N-(7-{[(2,4-dichlorophenyl)amino]sulfonyl}-1-oxo(2-2-hydronaphthyl))acetamide] | specific binding of the compound to HLA-DR1301; also recorded: specifically competes with MBP peptide for binding to purified DR1301 molecules | greater degree of specificity for DR-1301 as compared with DR-1501 | – |
| – | – | – | – | COc1ccc(NS(=O)(=O)c2ccc3ncn(NS(=O)(=O)c4ccc(I)cc4)c(=O)c3c2)cc1 [analog #14, 3-{[(4-iodophenyl)sulfonyl]amino}-6-{[(4-methoxyphenyl)amino]sulfonyl}-3-hydroquinazolin-4-one] | – | – | inactive |
| – | significant effect | best dose-response curves | weaker inhibition | CC(=O)Nc1ccc(NCC(=O)Nn2cnc3ccc(S(=O)(=O)Nc4ccc(NC(C)=O)cc4)cc3c2=O)cc1 [compound #105, 2-{[4-(acetylamino)phenyl]amino}-N-[6-({[4-(acetylamino)phenyl]amino}sulfonyl)-4-oxo(3-hydroquinazolin-3-yl)]acetamide] | – | most effective in discriminating | strong inhibition |
